Test results as given in patent US20130150317A1, “COMPOUNDS FOR THE TREATMENT OF RENAL CELL CARCINOMA” (Myrovlytis Technology Ventures Limited, priority 2010, published 2013).
Structures can show the parent of a compound that is named as a salt. Where two headings read alike, the source gives them in different places.

Experiments:
Type in all cases: cell-based, human
UOK257-FLCN^− cells = test: SRB growth inhibition assay in UOK257-FLCN^− cells; conditions: for GI50: SRB assay, 72 hours continuous exposure, mean ± SE (n), read-out: GI50 nM in UOK-FLCN^−; for GI50 Ratio of UOK-FLCN^+/UOK-FLCN^−: ratio>1 = more inhibitory to FLCN^− cells; for fold difference in the GI50 values between FLCN-null and FLCN-wild type UOK257 cells: GI50 higher in FLCN-wild type cells (FLCN-null more sensitive)
Excerpt: (§1) Human renal carcinoma of BHD origin cells UOK-257 (UOK-FLCN^−) and FLCN transfected UOK-257 cells UOK-FLCN^+ (Yang et al Cancer Genet Cytogenet. 2008 Jan. 15; 180(2):100-9) were provided by Dr Marston Linehan and Dr. Laura S Schmidt (Urologic Oncology Branch, Centre for Cancer Research, National Cancer Institute, National Institutes of Health, Bethesda, Md. 20892, USA). UOK-257 is the only RCC cell line that has been derived from a patient with BHD and harbours a germline FLCN frameshift mutation (c.1285dupC) (predicted, in the absence of nonsense mediated mRNA decay, to lead to premature protein truncation (p.His429ProfsX27) (Yang et al., Cancer Genet Cytogenet, 2008 Jan. 15; 180(2):100-9). We are not aware of any sporadic RCC cell lines with homozygous FLCN inactivation. FTC-133 cells were purchased from ECACC (Salisbury, United Kingdom). These cells are a non-RCC cell line derived from human thyroid carcinoma. 786-0 cells were available from the author's lab (Clifford et al., Hum Mol Genet. 2001 May 1; 10(10):1029-38). 786-O is a kidney cancer cell line that harbours an inactivating VHL gene mutation (c.311delG p.G104fs*55). All cell lines were cultured in DMEM with supplement of 10% foetal bovine serum except for FTC-133 cells which were incubated in medium with DMEM and Hens (1:1).
(§2) The sensitivity of the cell lines to drug-induced cell growth inhibition was determined using the sulphorhodamine B assay (SRB) as described by Lu et al., Clin Cancer Res. 2001:7:2114-23. Briefly, adherent exponentially growing cells were seeded into 96-well plates at 3-5×10^3 cells/100 μl/well. […] The absorbance per well was measured at 570 nm on a Victor X3 Multilabel Plate Reader (PerkinElmor, Beaconsfield, United Kingdom).
GI50 values, defined as the concentration of compounds required to inhibit growth by 50%, were then calculated. The ratio of GI50 value from UOK257-FLCN^+ and UOK257-FLCN^− were calculated and used as an indicator for the sensitivity to FLCN mutant cells.

UOK257-FLCN^+ cells = test: SRB growth inhibition assay in UOK257-FLCN^+ cells; conditions: 72 hours continuous exposure, mean ± SE (n), read-out: GI50 nM in UOK-FLCN^+
Excerpt: as §1
(§3) The sensitivity of the cell lines to drug-induced cell growth inhibition was determined using the sulphorhodamine B assay (SRB) as described by Lu et al., Clin Cancer Res. 2001:7:2114-23. Briefly, adherent exponentially growing cells were seeded into 96-well plates at 3-5×10^3 cells/100 μl/well. After 20-24 h at 37° C., drugs were added at the appropriate drug concentrations to the wells (final DMSO conc. 1%) as indicated in the Results section. […] The absorbance per well was measured at 570 nm on a Victor X3 Multilabel Plate Reader (PerkinElmor, Beaconsfield, United Kingdom).
UOK-257 is the only RCC cell line that has been derived from a patient with BHD and harbours a germline FLCN frameshift mutation (c.1285dupC) (predicted, in the absence of nonsense mediated mRNA decay, to lead to premature protein truncation (p.His429ProfsX27) (Yang et al Cancer Genet Cytogenet, 2008 Jan. 15; 180(2):100-9). Both UOK257-FLCN^− and UOK257-FLCN^+ cells were examined for their sensitivities to growth inhibition induced by 15 compounds selected from the COMPARE analysis. Various concentrations of compounds were introduced into the cells 24 hrs after seeding, incubation was continued for 72 hours and growth inhibition was assessed using the suiphorhodamine B (SRB) assay. GI50 values, defined as the concentration of compounds required to inhibit growth by 50%, were then calculated. The ratio of GI50 value from UOK257-FLCN^+ and UOK257-FLCN^− were calculated and used as an indicator for the sensitivity to FLCN mutant cells.

[1] = tested on: 786-O cells with mutant VHL; test: SRB growth inhibition in 786-O cells with mutant VHL; conditions: SRB assay, 72 hours
Excerpt: as §1, §3
Cells were exposed continuously to various concentrations of drugs for 72 hours. GI50 values were determined as the concentrations at 50% growth inhibition from at least three experiments.

[2] = tested on: FTC-133 cells transfected with empty vector; test: SRB growth inhibition in FTC-133 cells, empty vector; conditions: SRB assay
Excerpt: as §1, §2
(§4) A FLCN containing construct was introduced into parental FTC-133 cells and stably transfected cells were selected. SRB growth inhibition assay was carried out in cells transfected with empty vector and low FLCN and high FLCN expression.
as §4

[3] = tested on: caspase3/7 activity in UOK257-FLCN^− and UOK257-FLCN^+ cells; test: Caspase-Glo 3/7 assay in UOK-257 cells with/without FLCN expression; conditions: 48 hrs, all three concentrations
Protocol: The ability to induce caspase 3/7 activation after exposure to compounds was measured by Caspase-Glo 3/7 Assay (Promega, Southampton, United Kingdom) according to manufacturer's instruction. The cells were seeded and dosed as described in growth inhibition assay. At the end of incubation, 70 μl of medium was removed and 30 μl of assay reagent was added to the remaining medium. Additional one hour incubation with shaking was carried out at room temperature. The resultant luminescent light was measured in a Victor X3 Multilabel Plate Reader (PerkinElmer, Beaconsfield, United Kingdom). Cell viability after compound exposure was determined by CellTiter-Blue Cell Viability Assay (Promega, Southampton, the United Kingdom) according to manufacturer's instruction. At the end of drug treatment, 20 μl of reagent was added to the medium in 96 wells and the cells were incubated for additional 4 hours. The cell viability was measured by fluorescence with a 570 nm excitation and 590 nm emission set in a Victor X3 Multilabel Plate Reader (PerkinElmer, Beaconsfield, United Kingdom).
After 48 hrs incubation, with three concentration ranges for each drug, the capase3/7 activity was detected by amount of luminescence for each cell line. The ratio of caspase3/7 activity from UOK257-FLCN^− and UOK257-FLCN^+ were calculated and used as indicators for the ability of the individual compound to induce caspase3/7 activity to FLCN mutant cells.
These ratios were calculated and used as indicators for the sensitivity to mutant FLCN cells.

Row | Compound | GI50 (UOK257-FLCN^− cells) | GI50 Ratio of UOK-FLCN^+/UOK-FLCN^− (UOK257-FLCN^− cells) | GI50 (UOK257-FLCN^+ cells) | GI50 (UOK257-FLCN^− cells; Homo sapiens) | GI50 (UOK257-FLCN^+ cells; Homo sapiens) | other results
1 | COc1cccc2c1C(=O)c1c(O)c3c(c(O)c1C2=O)C[C@@](O)(C(C)=O)C[C@@H]3O[C@H]1C[C@H](N(Cc2ccccc2)Cc2ccccc2)[C@@H](O)[C@H](C)O1 [N,N-dibenzyldaunomycin] | 5740 ± 918 nM | 0.22 | 1270 ± 549 nM | – | – | –
2 | COc1cc([C@@H]2c3cc4c(cc3[C@@H](O[C@@H]3O[C@@H]5CO[C@@H](c6cccs6)O[C@H]5[C@H](O)[C@H]3O)[C@H]3COC(=O)[C@H]23)OCO4)cc(OC)c1O [VM-26 (teniposide), teniposide] | – | 1.10 | – | 773 ± 162 nM | 849 ± 358 nM | –
3 | C(=N\NC1=NCCN1)/c1c2ccccc2c(/C=N/NC2=NCCN2)c2ccccc12 [bisantrene hydrochloride] | – | 0.77 | – | 1750 ± 288 nM | 1340 ± 602 nM | –
4 | COc1cccc2c1C(=O)c1c(O)c3c(c(O)c1C2=O)C[C@@](O)(C(=O)CO)C[C@@H]3O[C@H]1C[C@H](N2CCOCC2C#N)[C@H](O)[C@H](C)O1 (stereo partly shown) [cyanomorpholino-ADR] | 3.79 ± 0.39 nM | 0.16 | 0.62 ± 0.16 nM | – | – | fold difference in the GI50 values between UOK257-FLCN^+ and UOK257-FLCN^− cells (UOK257-FLCN^− cells; GI50 higher in FLCN^− cells (FLCN^− less sensitive)): 6 fold
5 | CC[C@H](C)[C@H]1NC(=O)[C@@H](NC(=O)[C@@H](CC(C)C)N(C)C(=O)[C@@H]2CCCN2C(=O)C(C)O)[C@@H](C)OC(=O)[C@H](Cc2ccc(OC)cc2)N(C)C(=O)[C@@H]2CCCN2C(=O)[C@H](CC(C)C)NC(=O)[C@@H](C)C(=O)[C@H](C(C)C)OC(=O)C[C@@H]1O (stereo partly shown) [didemnin B] | 7.94 ± 1.66 nM | 0.82 | 6.53 ± 1.78 nM | – | – | –
6 | COc1cccc2c1C(=O)c1c(O)c3c(c(O)c1C2=O)C[C@@](O)(C(=O)CO)C[C@@H]3O[C@H]1C[C@H](N)[C@H](O)[C@H](C)O1 [doxorubicin (adriamycin), doxorubicin] | – | 1.37 | – | 423 ± 54 nM | 581 ± 109 nM | –
7 | CS[C@H]1SC[C@H]2C(=O)N(C)[C@@H](C(C)C)C(=O)OC[C@@H](NC(=O)c3cnc4ccccc4n3)C(=O)N[C@@H](C)C(=O)N(C)[C@@H]1C(=O)N(C)[C@@H](C(C)C)C(=O)OC[C@@H](NC(=O)c1cnc3ccccc3n1)C(=O)N[C@@H](C)C(=O)N2C [echinomycin] | – | 0.71 | – | 5.72 ± 0.22 nM | 4.03 ± 0.89 nM | –
8 | CO[C@@H]1C[C@](C)(O)Cc2cc3c(c(O)c21)C(=O)c1c(O)cc2c(c1C3=O)O[C@@H]1O[C@@]2(C)[C@H](O)[C@@H](N(C)C)[C@@H]1O [menogaril] | – | 1.29 | – | 588 ± 57 nM | 757 ± 117 nM | –
9 | COc1cccc2c1C(=O)c1c(O)c3c(c(O)c1C2=O)C[C@@](O)(C(=O)CO)C[C@@H]3O[C@H]1C[C@H](N2CCOCC2)[C@H](O)[C@H](C)O1 [morpholino-ADR, Morpholino-ADR] | 0.45 ± 0.03 nM | 0.97 | 0.44 ± 0.1 nM | – | – | –
10 | CC(=O)O[C@H]1C(=O)[C@@]2(C)[C@H]([C@H](OC(=O)c3ccccc3)[C@]3(O)C[C@H](OC(=O)[C@H](O)[C@@H](NC(=O)c4ccccc4)c4ccccc4)C(C)=C1C3(C)C)[C@]1(OC(C)=O)CO[C@@H]1C[C@@H]2O [paclitaxel (taxol), paclitaxel] | – | 6.81 | – | 75.5 ± 9.2 nM | 514 ± 86 nM | fold difference in the GI50 values between FLCN-null and FLCN-wild type UOK257 cells (UOK257-FLCN^− cells): ~7 fold
11 | CC(=O)O[C@@H]1[C@@H](O)[C@H](O[C@H]2[C@H](OC(=O)[C@H]3CC[C@@H]4[C@H](C3)O[C@@]3(C[C@H](OC(=O)/C=C/c5ccccc5)[C@H](C)CO3)[C@]43CO3)O[C@H](C)[C@@H](O)[C@@H]2OC(C)=O)O[C@H](C)[C@H]1O [phyllanthoside] | – | 2.15 | – | 199 ± 79 nM | – | fold difference in the GI50 values between FLCN-null and FLCN-wild type UOK257 cells (UOK257-FLCN^− cells): ~2 fold; GI50 (UOK257-FLCN^+ cells; Homo sapiens, 72 h): 427 ± 97 nM
12 | CC[C@]1(O)C[C@H]2CN(CCc3c([nH]c4ccccc34)[C@@](C(=O)OC)(c3cc4c(cc3OC)N(C=O)[C@H]3[C@@](O)(C(=O)OC)[C@H](OC(C)=O)[C@]5(CC)C=CCN6CC[C@]43[C@@H]65)C2)C1 [vincristine sulphate, vincristine sulfate] | – | 1.88 | – | 30.1 ± 10.3 nM | 56.4 ± 17.5 nM | fold difference in the GI50 values between FLCN-null and FLCN-wild type UOK257 cells (UOK257-FLCN^− cells): ~2 fold; change in growth inhibition for 786-0 cells with/without VHL expression (in words) [1]: no significant change; differential sensitivity in FTC-133 cells with different levels of FLCN expression (in words) [2]: no selective vincristine sensitivity
13 | bruceantin | 68.4 ± 14.9 nM | 0.64 | 43.6 ± 5.1 nM | – | – | ratio of caspase3/7 activity from UOK257-FLCN^− and UOK257-FLCN^+ [3]: < 1
